Patent US20110143948A1, “MOLECULAR SIGNATURES AND BIOMARKERS ASSOCIATED WITH MELANOMA AND METHODS OF USE THEREOF” (priority 2008, published 2011)

Test system: ncRNAs (SEQ ID NO 28-89)
Assay: ncRNA arrays of melanocytes, keratinocytes, normal skin, melanoma cell lines and patient samples
Set-up: species or system human
Conditions: for ncRNA array expression, patient 2: melanoma patient 2 sample compared to normal skin; for ncRNA array expression, patient 3: melanoma patient 3 sample compared to normal skin; for ncRNA array expression, patient 4: melanoma patient 4 sample compared to normal skin; for ncRNA array expression, patient 5: melanoma patient 5 sample compared to normal skin; for ncRNA array expression, patient 6: melanoma patient 6 sample compared to normal skin; for ncRNA array expression, patient 7: melanoma patient 7 sample compared to normal skin; for ncRNA array expression, patient 8: melanoma patient 8 sample compared to normal skin; for ncRNA array expression, patient 9: melanoma patient 9 sample compared to normal skin; for ncRNA array expression, patient 10: melanoma patient 10 sample compared to normal skin; for ncRNA array expression, patient 19: melanoma patient 19 sample compared to normal skin; for ncRNA array expression, patient 20: melanoma patient 20 sample compared to normal skin; for ncRNA array expression, patient 21: melanoma patient 21 sample compared to normal skin; for ncRNA array expression, patient 22: melanoma patient 22 sample compared to normal skin; for ncRNA array expression, patient 23: melanoma patient 23 sample compared to normal skin; for ncRNA array expression, patient 24: melanoma patient 24 sample compared to normal skin; for ncRNA array expression, patient 25: melanoma patient 25 sample compared to normal skin; for ncRNA array expression, patient 26: melanoma patient 26 sample compared to normal skin; for ncRNA array expression, patient 27: melanoma patient 27 sample compared to normal skin; for ncRNA array expression, patient 28: melanoma patient 28 sample compared to normal skin; for ncRNA array expression, patient 29: melanoma patient 29 sample compared to normal skin; for ncRNA array expression, patient 30: melanoma patient 30 sample compared to normal skin
Summary of the method: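 Total RNA from melanocytes, keratinocytes, normal human skin, melanoma cell lines and melanoma patient samples was profiled on an array of >10,000 putative (>200 nt) human and mouse ncRNAs plus RefSeq mRNA probes. Expression was compared with melanocytes or normal skin, keratinocyte signatures were subtracted, and hits were validated by qRT-PCR and Northern blot.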

Substance | ncRNA array expression, patient 2 | ncRNA array expression, patient 3 | ncRNA array expression, patient 4 | ncRNA array expression, patient 5 | ncRNA array expression, patient 6 | ncRNA array expression, patient 7 | ncRNA array expression, patient 8 | ncRNA array expression, patient 9 | ncRNA array expression, patient 10 | ncRNA array expression, patient 19 | ncRNA array expression, patient 20 | ncRNA array expression, patient 21 | ncRNA array expression, patient 22 | ncRNA array expression, patient 23 | ncRNA array expression, patient 24 | ncRNA array expression, patient 25 | ncRNA array expression, patient 26 | ncRNA array expression, patient 27 | ncRNA array expression, patient 28 | ncRNA array expression, patient 29 | also measured
SEQ ID NO 38 (GTAAACAAGGTCTCACAAAAACAGCTGACCACACCATAAAATCACTGAGACCGAGCCTGC; listed as DNA, chemistry not given here; listed as Homo sapiens) | −1.1813 | −1.02 | −0.9275 | −1.288 | −1.615 | −1.64 | −1.244 | −1.183 | −0.784 | −0.7729 | −0.9285 | −1.068 | −0.7593 | −1.569 | −1.078 | −1.365 | −1.368 | −1.317 | −1.181 | −1.249 | ncRNA array expression, patient 30: 0.333
SEQ ID NO 79 (GTGTGTACTGATGTCAAAGACCAAATGGATGCCCCTGTGGCCAACAGTACCTTGTTAAAC; listed as DNA, chemistry not given here; listed as Homo sapiens) | 0.5938 | 1.324 | 1.428 | 1.43 | 1.201 | 1.729 | 1.728 | 1.129 | 0.1808 | 1.52 | 1.494 | 1.271 | 1.165 | 1.445 | 2.943 | 1.206 | 0.7039 | 0.9237 | 0.5852 | 0.6174 | ncRNA array expression, patient 30: 0.5148
SEQ ID NO 53 (ATATATTTAGATAGTACTATGTTTCGTTTTCTTCCGATTTCAGGGATCCTTTTGTCTTAC; listed as DNA, chemistry not given here; listed as Homo sapiens) | −2.867 | −2.306 | −2.08 | −2.02 | −1.882 | −2.068 | −1.878 | −2.195 | −3.16 | −2.319 | −1.903 | −2.124 | −2.7031 | −3.175 | −1.827 | −2.864 | −3.105 | −2.542 | −1.905 | −2.948 | ncRNA array expression, patient 30: −3.05
SEQ ID NO 51 (ATGTATTTTAGGTAATAAGATTTTTATCAATTGTGTCTTTTTCTTTCTTTGCTTTCTATA; listed as DNA, chemistry not given here; listed as Homo sapiens) | 0.8922 | 2.683 | 2.264 | 1.042 | 1.115 | 1.14 | 2.048 | 0.7789 | 0.8572 | 0.7228 | 1.113 | 1.298 | 0.5543 | 0.1918 | 1.761 | 2.552 | 1.145 | 1.166 | 0.879 | 0.7193 | ncRNA array expression, patient 30: −0.4325
SEQ ID NO 66 (TCCTTTTTATCTTGCACTCAGATGGTATTTTTAGAGATGTTTCTTCAATCAAAACAAGAT; listed as DNA, chemistry not given here; listed as Homo sapiens) | 2.553 | 2.044 | 2.799 | 1.983 | 2.127 | 2.319 | 2.869 | 1.498 | 1.587 | 0.7228 | 2.462 | 2.263 | 1.15 | 1.37 | 1.434 | 2.534 | 2.984 | 2.334 | 2.749 | 3.271 | ncRNA array expression, patient 30: −2.558
SEQ ID NO 81 (CTAGGGGCGGAGTTTCTCGTAAGGGGCAAGGCCAAGGCATCTTGTATTGGGGCTGACAGG; listed as DNA, chemistry not given here; listed as Homo sapiens) | −2.704 | −2.664 | −2.74 | −2.515 | −1.776 | −2.533 | −2.25 | −2.579 | −3.027 | −2.079 | −2.527 | −2.568 | −1.3874 | −1.288 | −2.451 | −2.889 | −3.081 | −2.77 | −2.666 | −2.727 | ncRNA array expression, patient 30: 2.229
SEQ ID NO 85 (TGAGGGGAGAGGGGATGGGAAACATTAGGGCTGGGTTCATGTAAAGGGACCAGCATTGTG; listed as DNA, chemistry not given here; listed as Homo sapiens) | −3.042 | −2.236 | −3.353 | −3.144 | −1.878 | −3.331 | −3.241 | −3.15 | −2.88 | −2.497 | −3.4136 | −3.4 | −1.235 | −0.784 | −3.14 | −3.2 | −3.139 | −3.328 | −3.261 | −3.3212 | ncRNA array expression, patient 30: 0.6346
